Columns and labels:
[1] = test system: human dermal fibroblasts, human liver carcinoma cells (HepG2), and neuronal human astrocytes; settings: same experiments (Sayes, 2004); cited from earlier work
Salmonella typhimurium = Salmonella typhimurium reverse mutation assay (AMES test); assay type: cell-based
From the text: Toxicity test for harmonized, Modified Fullerenes has shown this substance is not cytotoxic when the material is subjected to a Salmonella typhimurium reverse mutation assay (AMES test). The Ames test is used to determine any potential mutagenic activity of the test HMF material. The HMF material was exposed to a large number of test organism in an agar plate. The agar plates were monitored for growth of revertants (organisms mutating to the wild type). The number of wild type organisms are counted to estimate the mutagenic potential of the HMF material.

C60(OH)24 [Modified Fullerenes]
cytotoxicity [1]: no cytotoxicity

[C60(OH)10-36]^Φ/φ [HMF]
cytotoxicity (Salmonella typhimurium; Toxicity test, AMES test): not cytotoxic | mutagenic potential (growth of revertants) (Salmonella typhimurium; agar plate): not mutagenic
